Laboratory results reported in US20240270759A1, “Preparation of SHP2 phosphatase inhibitors and its applications” (Ya Therapeutics Inc, priority 2021, published 2024).
pIC50: −log10 of the molar value.

Target: T1, SHP2 full-length protein (Homo sapiens, UniProt Q06124)
T1 construct: purchased BPS Bioscience #79330
T1 sequence (Q06124 1-593): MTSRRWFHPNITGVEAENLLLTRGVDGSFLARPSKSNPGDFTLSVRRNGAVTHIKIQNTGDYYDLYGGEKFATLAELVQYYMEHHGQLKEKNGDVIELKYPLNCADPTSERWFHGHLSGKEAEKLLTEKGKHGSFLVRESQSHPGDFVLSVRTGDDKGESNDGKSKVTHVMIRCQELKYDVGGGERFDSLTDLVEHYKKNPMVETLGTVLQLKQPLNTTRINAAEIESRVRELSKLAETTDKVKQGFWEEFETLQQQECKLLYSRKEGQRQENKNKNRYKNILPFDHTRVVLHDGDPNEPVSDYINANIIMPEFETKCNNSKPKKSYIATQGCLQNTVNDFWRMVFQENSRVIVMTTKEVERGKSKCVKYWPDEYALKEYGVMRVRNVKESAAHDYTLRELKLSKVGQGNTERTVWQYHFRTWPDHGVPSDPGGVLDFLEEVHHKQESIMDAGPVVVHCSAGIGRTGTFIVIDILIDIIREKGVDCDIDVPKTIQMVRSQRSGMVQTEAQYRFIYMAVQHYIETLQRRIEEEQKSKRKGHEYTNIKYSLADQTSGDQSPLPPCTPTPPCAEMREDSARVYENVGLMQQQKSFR
Experiment: SHP2 allosteric inhibition experiment (Homogeneous Full Length SHP-2 Assay Kit)
Assay type: biochemical
Conditions: full-length SHP2 0.06 nM with SHP-2 activating peptide; ten-point, 1 μM to 0.05 nM; read-out: IC50 Values of Compounds Inhibiting SHP2
Source text: The following further describes and explains the present invention in combination with test examples, but these examples are not meant to limit the scope of the present invention. SHP2 allosteric inhibition experiment
The purpose of this test is to measure the ability of the compounds to inhibit the allosteric activity of the SHP2 full-length protein. Experimental equipment: a centrifuge (5810R) is purchased from Eppendorf Company; pipettes are purchased from Eppendorf Company and Rainin Company, and microplate readers are purchased from BioTek Company of the United States, SynergyH1 multimode microplate reader.
Experimental method: Homogeneous Full Length SHP-2 Assay Kit (BPS Bioscience, #79330) is used to detect SHP2 activity in vitro. First, add 18 μL of Master Mix to 96-well low-adsorption microplate (NUNC, #267342), that is, 0.5 μL of SHP-2 activating Peptide and 5 mM DTT are included in the reaction buffer with a final concentration of 1×. After centrifugation, add 5 μL of the compound to be tested in DMSO (final DMSO content is 1% (V/V) in each well: dissolve the compound to be tested in DMSO to 1 mM, conduct triple dilution with a total of 10 concentration levels ranging from 1 μM to 0.05 nM in the reaction buffer. After diluting SHP2 in 1× reaction buffer to a final concentration of 0.06 nM, add it to the reaction microwell plate, 2 μL per well. Set a full activity control ([…]) and a full inhibition control (without SHP-2) on the reaction plate, and incubate the reaction mixture at room temperature for 60 minutes after centrifugation.
After incubation, add 25 μL of Substrate solution to each well, containing Substrate with a final concentration of 10 μM and DTT with a final concentration of 5 mM, and after centrifugation, continue to incubate at room temperature for 30 minutes. After the reaction, set the excitation wavelength at 340 nm, the emission wavelength at 455 nm, and the gain value to 75 on the Synergy H1 microplate reader (Biotek) for reading.
Take the full activity control and full inhibition control as the values of Max and Min, and calculate the percentage inhibition rate of the wells treated with the compound based on the positive control wells (DMSO control wells) and negative control wells (no kinase added) on the reaction plate, (inhibition rate percentage=100−[(test compound−Min average value)/(Max average value−Min average value)]×100%. IC50 values of test compounds are calculated by fitting percentage of inhibition and ten-point concentration data to a 4-parameter nonlinear logic formula using GraphPad prism.

Structure (SMILES) | pIC50
C[C@@H]1OCC2(CCN(c3ncc4nc(Sc5cccc(NC(=O)c6ccncn6)c5Cl)cnc4n3)CC2)[C@@H]1N [Compound 82, N-(3-((2-((3S,4S)-4-amino-3-methyl-2-oxa-8-azaspiro[4.5]decane-8-yl)pteridine-6-yl)mercapto)-2-chlorophenyl)pyrimidine-4-carboxamide] | ≥ 8.00
C[C@@H]1OCC2(CCN(c3cnc4nc(Sc5cccc(-c6ccncn6)c5Cl)ncc4n3)CC2)[C@@H]1N [Compound 75, (3S,4S)-8-(2-((2-chloro-3-(pyrimidine-4-yl)phenyl)mercapto)pteridine-6-yl)-3-methyl-2-oxa-8-azaspiro[4.5]decane-4-amine] | ≥ 8.00
Nc1nccc(-n2c(=O)[nH]c3nc(N4CCC5(CC4)Cc4cnccc4[C@H]5N)cnc3c2=O)c1Cl [Compound 20, (S)-3-(2-amino-3-chloropyridine-4-yl)-7-(5-amino-5,7-dihydrospiro[cyclopenta[c]pyridine-6,4′-piperidine]-1′-yl)pteridine-2,4(1H,3H)-dione] | ≥ 8.00
C[C@@H]1OCC2(CCN(c3ccc4nc(Sc5cccc(NC(=O)c6cnccn6)c5Cl)ncc4n3)CC2)[C@@H]1N [Compound 86, N-(3-((6-((3S,4S)-4-amino-3-methyl-2-oxa-8-azaspiro[4.5]decane-8-yl)pyridinyl[3,2-d]pyrimidine-2-yl)mercapto)-2-chlorophenyl)pyrazine-2-carboxamide] | ≥ 8.00
C[C@@H]1OCC2(CCN(c3ccc4nc(Sc5cccc(NC(=O)c6ccncn6)c5Cl)ncc4n3)CC2)[C@@H]1N [Compound 83, N-(3-((6-((3S,4S)-4-amino-3-methyl-2-oxa-8-azaspiro[4.5]decane-8-yl)pyridinyl[3,2-d]pyrimidine-2-yl)mercapto)-2-chlorophenyl)pyrimidine-4-carboxamide] | ≥ 8.00
N[C@@H]1c2ccccc2CC12CCN(c1cnc3c(=O)n(-c4cccc(Cl)c4Cl)c(=O)[nH]c3n1)CC2 [Compound 13, (S)-7-(1-amino-1,3-dihydrospiro[indene-2,4′-piperidine]-1′-yl)-3-(2,3-dichlorophenyl) pteridine-2,4(1H,3H)-dione] | 7.00 to 8.00
N[C@@H]1c2ccncc2CC12CCN(c1cnc3c(=O)n(-c4cccc(Cl)c4Cl)c(=O)[nH]c3n1)CC2 [Compound 15, (S)-7-(5-Amino-5,7-dihydrospiro [cyclopenta[c]pyridine-6,4′-piperidine]-1′-yl)-3-(2,3-dichlorophenyl)pteridine-2,4(1H,3H)-dione] | 7.00 to 8.00
C[C@@H]1OCC2(CCN(c3ncc4nc(Sc5cccc(-c6ccn(C)n6)c5Cl)ccc4n3)CC2)[C@@H]1N [Compound 90, (3S,4S)-8-(6-((2-chloro-3-(1-methyl-1H-pyrazole-3-yl)phenyl)mercapto)pyridinyl[3,2-b]pyrimidine-2-yl)-3-methyl-2-oxa-8-azaspiro[4.5]decane-4-amine] | ≥ 8.00
C[C@@H]1OCC2(CCN(c3cnc4nc(Sc5cccc(NC(=O)c6c(O)nc7n(c6=O)CCCC7)c5Cl)ncc4n3)CC2)[C@@H]1N [Compound 87, N-(3-((6-((3S,4S)-4-amino-3-methyl-2-oxa-8-azaspiro[4.5]decane-8-yl)pteridine-2-yl)mercapto)-2-chlorophenyl)-2-hydroxy-4-oxo-6,7,8,9-tetrahydro-4H-pyridinyl[1,2-a]p yrimidine-3-carboxamide] | ≥ 8.00
C[C@@H]1OCC2(CCN(c3ccc4nc(Sc5cccc(-c6cccnc6)c5Cl)ncc4n3)CC2)[C@@H]1N [Compound 80] | ≥ 8.00
NC1COCC12CCN(c1ccc3c(=O)n(-c4cccc(Cl)c4Cl)c(=O)[nH]c3c1)CC2 (stereo in doubt) [Compound 2, (S)-7-(4-amino-2-oxa-8-azaspiro[4.5]decane-8-yl)-3-(2,3-dichlorophenyl)quinazoline-2,4(1H,3H)-dione] | ≥ 8.00
N[C@@H]1c2cnccc2CC12CCN(c1cnc3c(=O)n(-c4cccc(Cl)c4Cl)c(=O)[nH]c3n1)CC2 [Compound 16, (S)-7-(7-Amino-5,7-dihydrospiro [cyclopenta[c]pyridine-6,4′-piperidine]-1′-yl)-3-(2,3-dichlorophenyl)pteridine-2,4(1H,3H)-dione] | 7.00 to 8.00

The next lines start with the values.

pIC50 | Structure (SMILES)
≥ 8.00 | CCn1ccc(-c2cccc(Sc3ccc(N4CCC5(CC4)CO[C@@H](C)[C@H]5N)nn3)c2Cl)n1 [Compound 127, (3S,4S)-8-(3-((2-chloro-3-(1-ethyl-1H-pyrazole-3-yl)phenyl)mercapto)pyridazine-6-yl)-3-methyl-2-oxa-8-azaspiro[4.5]decane-4-amine]
≥ 8.00 | CCn1ccc(-c2cccc(Sc3ncc(N4CCC5(CC4)CO[C@@H](C)[C@H]5N)nn3)c2Cl)n1 [Compound 129, (3S,4S)-8-(3-((2-chloro-3-(1-ethyl-1H-pyrazole-3-yl)phenyl)mercapto)-1,2,4-triazine-6-yl)-3-methyl-2-oxa-8-azaspiro[4.5]decane-4-amine]
≥ 8.00 | C[C@@H]1OCC2(CCN(c3ncc(Sc4cccc(Nc5ccncn5)c4Cl)cn3)CC2)[C@@H]1N [Compound 122, (3S,4S)-8-(5-((2-chloro-3-(pyrimidine-4-amino)phenyl)mercapto)pyrimidine-2-yl)-3-methyl-2-oxa-8-azaspiro[4.5]decane-4-amine]
≥ 8.00 | C[C@@H]1OCC2(CCN(c3cnc(Sc4cccc(NC(=O)c5c(O)nc6n(c5=O)CCCC6)c4Cl)nc3)CC2)[C@@H]1N [Compound 102, N-(3-((5-((3S,4S)-4-amino-3-methyl-2-oxa-8-azaspiro[4.5]decane-8-yl)pyrimidine-2-yl)mercapto)-2-chlorobenzene)-2-hydroxyl-4-oxa-6,7,8,9-tetrahydro-4H-pyridinyl[1,2-a]pyrimidine-3-carboxamide]
≥ 8.00 | CCn1ccc(-c2cccc(Sc3cnc(N4CCC5(CC4)CO[C@@H](C)[C@H]5N)nn3)c2Cl)n1 [Compound 131, (3S,4S)-8-(6-((2-chloro-3-(1-ethyl-1H-pyrazole-3-yl)phenyl)mercapto)-1,2,4-triazine-3-yl)-3-methyl-2-oxa-8-azaspiro[4.5]decane-4-amine]
≥ 8.00 | C[C@@H]1OCC2(CCN(c3cnc(Sc4cccc(-c5cnccn5)c4Cl)nn3)CC2)[C@@H]1N [Compound 134, (3S,4S)-8-(3-((2-chloro-3-(pyrazine-2-yl)phenyl)mercapto)-1,2,4-triazine-6-yl)-3-methyl-2-oxa-8-azaspiro[4.5]decane-4-amine]
≥ 8.00 | C[C@@H]1OCC2(CCN(c3nnc(Sc4cccc(-c5cnccn5)c4Cl)nn3)CC2)[C@@H]1N [Compound 133, (3S,4S)-8-(3-((2-chloro-3-(pyrazine-2-yl)phenyl)mercapto)-tetrazine-6-yl)-3-methyl-2-oxa-8-azaspiro[4.5]decane-4-amine]
≥ 8.00 | C[C@@H]1OCC2(CCN(c3ncc(Sc4cccc(NC(=O)c5c(O)nc6n(c5=O)CCCC6)c4Cl)nn3)CC2)[C@@H]1N [Compound 130, N-(3-((2-((3S,4S)-4-amino-3-methyl-2-oxa-8-azaspiro[4.5]decane-8-yl)-1,2,4-triazine-6-yl)mercapto)-2-chlorophenyl)-2-hydroxy-4-oxo-6,7,8,9-tetrahydro-4H-pyridinyl[1,2-a]pyrimidine-3-carboxamide]
≥ 8.00 | C[C@@H]1OCC2(CCN(c3cnc4nc(Sc5cccc(-c6ccn(C)n6)c5Cl)ccc4n3)CC2)[C@@H]1N [Compound 92, (3S,4S)-8-(6-((2-chloro-3-(1-methyl-1H-pyrazole-3-yl)phenyl)mercapto)pyridinyl[2,3-b]pyrazine-2-yl)-3-methyl-2-oxa-8-azaspiro[4.5]decane-4-amine]
≥ 8.00 | C[C@@H]1OCC2(CCN(c3ncc4nc(Sc5cccc(Oc6ccn(C)n6)c5Cl)cnc4n3)CC2)[C@@H]1N [Compound 93]
